According to publication PMC4746591, “Internal (His)6-tagging delivers a fully functional hetero-oligomeric class II chaperonin in high yield” (Scientific Reports, 2016):

B1: thermosome β subunit (natural protein, Thermoplasma acidophilum)
chain: MIAGQPIFILKEGTKRESGKDAMKENIEAAIAISNSVRSSLGPRGMDKMLVDSLGDIVITNDGVTILKEMDVEHPAAKMMVEVSKTQDSFVGDGTTTAVIIAGGLLQQAQGLINQNVHPTVISEGYRMASEEAKRVIDEISTKIGADEKALLLKMAQTSLNSKSASVAKDKLAEISYEAVKSVAELRDGKYYVDFDNIQVVKKQGGAIDDTQLINGIIVDKEKVHPGMPDVVKDAKIALLDAPLEIKKPEFDTNLRIEDPSMIQKFLAQEENMLREMVDKIKSVGANVVITQKGIDDMAQHYLSRAGIYAVRRVKKSDMDKLAKATGASIVSTIDEISSSDLGTAERVEQVKVGEDYMTFVTGCKNPKAVSILVRGETEHVVDEMERSITDSLHVVASALEDGAYAAGGGATAAEIAFRLRSYAQKIGGRQQLAIEKFADAIEEIPRALAENAGLDPIDILLKLRAEHAKGNKTYGINVFTGEIEDMVKNGVIEPIRVGKQAIESATEAAIMILRIDDVIATKSSSSSSNPPKSGSSSESSED
notes: thermosome β subunit, Thermoplasma acidophilum, P48425; untagged; Eight copies stand in the α8/β8 hexadecamer; also called un-tagged β-subunit; source: E. coli BL21(DE3) Codon Plus-RIL, co-expressed in tandem with the α subunit (αK144HTTherm or pETTherm α/β); in lysate, then purified with the complex

Key:
[1] = target: T1, (His)6-tagged α8/β8 thermosome (Ht thermosome, αK144Ht) (Thermoplasma acidophilum, UniProt P48424+P48425); experiment: coupled enzymatic steady-state ATPase assay; type: biochemical; conditions: 55 °C; tighter site of a two-site fit; read-out: KM1
T1 construct: gene thsA; full-length alpha with internal His6 inserted after Lys144, untagged beta; co-expressed in E. coli; α8/β8 hexadecamer, about 960 kDa

[2] = target: T2, thermosome α subunit with a (His)6-tag downstream Lys144 (αK144Ht) (Thermoplasma acidophilum, UniProt P48424 1-545); experiment: SEC; peak from the affinity column run on Superose 6 (or HiLoad 26/600 Superdex 200) in 25 mM TrisHCl, 150 mM NaCl, 5 mM EDTA pH 7.5, room temperature; single peak of about 960 kDa to 1 MDa (hexadecamer); SDS-PAGE of the peak; subunits co-expressed and co-purified; conditions: both partners purified
T2 construct: thermosome α subunit, Thermoplasma acidophilum, P48424; synthetic gene (Invitrogen) with six histidines inserted downstream of Lys144, in the loop between beta sheet β4 and alpha helix α6; Eight copies stand in the α8/β8 hexadecamer; also called K144-(His)6 α-subunit; (His)6-tagged α subunit; source: E. coli BL21(DE3) Codon Plus-RIL, co-expressed with the β subunit from the construct …
T2 sequence: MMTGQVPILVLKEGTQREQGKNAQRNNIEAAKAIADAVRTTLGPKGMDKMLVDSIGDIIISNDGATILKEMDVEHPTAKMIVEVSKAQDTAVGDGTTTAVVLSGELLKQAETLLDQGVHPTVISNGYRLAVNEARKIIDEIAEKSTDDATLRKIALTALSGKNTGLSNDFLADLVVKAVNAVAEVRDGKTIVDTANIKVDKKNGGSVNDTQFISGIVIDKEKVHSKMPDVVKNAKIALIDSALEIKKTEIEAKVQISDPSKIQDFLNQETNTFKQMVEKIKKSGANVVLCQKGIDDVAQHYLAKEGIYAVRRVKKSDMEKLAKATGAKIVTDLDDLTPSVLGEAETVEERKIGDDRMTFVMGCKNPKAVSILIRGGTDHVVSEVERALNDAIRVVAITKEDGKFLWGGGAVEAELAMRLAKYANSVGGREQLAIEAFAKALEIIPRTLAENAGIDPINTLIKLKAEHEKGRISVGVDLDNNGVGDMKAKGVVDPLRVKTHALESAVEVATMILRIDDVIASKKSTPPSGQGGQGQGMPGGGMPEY

Molecule	Km [1] [µM]	stoichiometry N [2]
Nc1ncnc2c1ncn2[C@@H]1O[C@H](COP(=O)(O)OP(=O)(O)OP(=O)(O)O)[C@@H](O)[C@H]1O [ATP]	15	–
B1	–	1 α:β ratio
